System: primary adult human dermal fibroblasts (HDFs)
Assay: High-throughput compound screen for selective elimination of senescent cells (cell viability, Hoechst 33342 / SYTOX Green high content imaging) in early proliferating (EP) and deeply senescent (DS) fibroblasts
Assay type: cell-based
Set-up: key: senolytic: EP cell viability above the 89% EP threshold and DS cell viability below the 87% DS threshold for at least one concentration of the three serial concentrations; prolifolytic: test compounds which decreased EP cell viability below the 89% EP threshold but did not decrease DS cell viability below 87%; cytotoxic: Test compounds which decreased both EP and DS cell viability below their respective thresholds; non-toxic: test compounds which maintained both EP and DS viability above their respective thresholds
Settings: three serial concentrations, 48 hours incubation, read-out five days post compound addition, thresholds 89% EP, 87% DS, for at least one concentration
Protocol: Actinomycin D, a drug widely reported to induce apoptosis in multiple cell types, was optimised for use as a positive 'senolytic control' for the high-throughput compound screen in EP (0.02µM) and DS (0.2µM) HDFs.
In order to perform the high-throughput screen of the test compounds a thorough validation process of the assay was undertaken prior to experimental screening. For both EP and DS HDFs, the following steps were optimised: optimisation of cell seeding densities in 384-well plate format; validation and optimisation of Actinomycin D positive and DMSO-vehicle negative controls; optimisation of high-throughput image acquisition and high content analysis of Hoechst 33342 (ThermoFisher, UK) in combination with SYTOX Green (ThermoFisher, UK) using the INCell 2200 microscope (GE, UK) for cell death phenotypic read-outs; optimisation of liquid handling system protocols; plate uniformity assessments; and a "dry run" of all components in the assay. […]
Following successful high-throughput compound screening of the test compounds in both EP and DS HDFs, a number of post-screen quality control checks were employed prior to hit detection. First, negative and positive control inter- and intra-plate cell number variability was assessed in order to identify potential systemic issues. […]

## O=C(O)Cn1ccc2ccccc21 [1-indoleacetic acid]
  hit classification based on EP and DS cell viability: senolytic

From EP4168130B1, “USE OF INDOLE COMPOUNDS FOR TREATING SIGNS OF SKIN AGING” (Unilever IP Holdings B.V., priority 2020, dated 2021)
